“Also recorded” adds a separate entry of the source. Like-named read-outs stand apart in the source and are kept apart here.
What was measured:
[1] = tested on: mouse embryonic neural stem cells; experiment: Morphology analysis of NSC differentiation in mouse embryonic neural stem cells (Examples 1, 6); assay type: cell-based; settings: for concentration at which differentiation morphology starts: tested at 0.1, 1.0, 10 μM
Method: Neural stem cells were isolated from the brain of a day 14.5 mouse embryo, treated with 10 ng/ml human basic fibroblast growth factor (bFGF) (Peprotech, Princeton, NG, cat#.100-18B) and 20 ng/ml human epidermal growth factor (EGF) (Peprotech, cat#. AF-100-15) in a N2 culture medium, and cultured in suspension in a 25 cm2 flask (Nunc, Pittsburgh, Pa.) for 4 days. Formation of neurospheres was observed after 2 days.
In order to isolate single cells, 6-well plates were prepared the day before by treating the wells with 15 μg/ml poly-L-ornithine (Sigma, St. Louis, Mo., cat#.P2533) solution and incubating overnight at 37° C. for coating. The day of the single cell isolation, poly-L-ornithine solution was removed, the plates were washed with PBS three times, and 10 μg/ml fibronectin (Gibco, Waltham, Mass., cat#. 33016015) solution was added and incubated at 37° C. for 2 hours for coating.
Various concentrations of the compound of [Formula 1] […]

[2] = tested on: mouse adult neural stem cells; settings: for cell protection and NSC differentiation under amyloid-beta cytotoxicity: 10 μM amyloid-beta, each at its optimal concentration (AS703026 10, AZD8330 1, PD318088 1, binimetinib 10, refametinib 1, PD0325901 10, RO5126766 10 μM); for cell toxicity / cell death (morphology): AS703026 10 μM; for concentration at which the differentiation-inducing effect starts: no amyloid-beta
Method: NSC were isolated from the subventricular zone of week 8 mouse brain, treated with 20 ng/ml human basic fibroblast growth factor (bFGF) and 20 ng/ml human epidermal growth factor (EGF) in an IPM medium, and cultured as a suspension in 24-well plates for 7 days.
Two days before the isolation of single cells, 6-well plates were prepared by treating the wells with 10 μg/ml poly-L-ornithine solution and incubating overnight at room temperature for coating. The next day, poly-L-ornithine solution was removed and the plates were washed 3 times with sterilized triple distilled water. […] The culture solution used is N2 culture medium (supplemented with 20 ng/ml bFGF and 20 ng/ml EGF). Right before seeding, the coating solution was suctioned out, and the single cells were uniformly seeded into the culture plate before the plate dried up. Cells were allowed to attach to the plates for about one minute, and after checking that cells were sufficiently attached, an additional 1.5 ml of culture medium (N2 culture medium with 20 ng/ml bFGF and 20 ng/ml EGF) was added to the cells and cultured in a 37° C. incubator for 24 hours.
Wells not treated with amyloid-beta were left to use as negative controls.
Gibco's (Waltham, Mass.) human Aβ (1-42) was purchased to use for the amyloid-beta (Aβ), and the following process was followed to create oligomers. First, amyloid-beta was dissolved in 100% HFIP (1,1,1,3,3,3-hexafluoro-2-propanol) (Sigma, cat#.105228) to obtain a concentration of 1 mg/ml and vortexed at room temperature for 1 hour. Then, it was dried for 10 minutes in a speed Vac, after which DMSO (Sigma, cat#.D2650) was added to bring the concentration to 5 mM and then lightly vortexed at room temperature for 10 minutes. […] The solution was incubated at 4° C. for 24 hours and then added into the cultured cells.
The NCSs were cultured with the daily addition of EGF, bFGF, amyloid-beta, and test materials for 4 days.

[3] = tested on: mouse embryonic neural stem cells; experiment: Immunocytochemistry analysis, Tuj1 and DAPI staining (Example 3); assay type: cell-based; settings: 4 days
Method: Tuj1 (Neuron specific class III beta-tubulin) is a neuron specific marker protein, which was conjugated to rhodamine to show fluorescent red, while DAPI binds to the cell DNA and stains the cell nuclei fluorescent blue. […] The medium was removed and the cells were washed with PBS. After fixing with 10% formaldehyde (Sigma cat#. HT501128) at room temperature for 10 minutes, they were washed again with PBS. They were permeabilized with 0.2% Triton X-100 (Sigma, cat#. 93443) at room temperature for 15 minutes, washed with PBS, and incubated with 10% BSA (Sigma, cat#. A2153)+1% normal goat serum (Vector lab, Burlingame, Calif., cat#. S1000) at room temperature for 1 hour. […] The solution was removed, washed with PBS, and incubated at room temperature for 1 hour with the secondary antibody (rhodamine-conjugated antibody) diluted in 1% BSA+1% normal goat serum at a ratio of 1:200. Then, the cells were washed with PBS, incubated with 5 μg/ml DAPI (Sigma, cat#. D9542) for 5 minutes, washed with PBS again, and mounted on a slide glass for analysis with a fluorescent microscope.

[4] = tested on: mouse embryonic neural stem cells; experiment: qRT-PCR of relative mRNA expression of neuronal markers in mouse embryonic NSC (Examples 4-1, 4-2, 6); assay type: cell-based; settings: 10 μM (10000 nM)
Method: Isopropanol (Ducsan, GyunggiDo, Korea, cat#. 67-63-0) was added and mixed for RNA isolation, then centrifuged again to remove the supernatant and obtain the pellet. The RNA pellet was resuspended in 75% ethanol (Ducsan, cat#. 64-17-15), centrifuged, and the supernatant removed. The pellet was then resuspended in sterilized triple distilled water to obtain the mRNA, incubated for 10 minutes at 55° C., and stored at −80° C.
Sterilized triple distilled water, […] oligo dT, and 1 mM dNTP were added to the RNA and incubated for 5 minutes at 65° C. This was followed by the addition of 5X First-strand buffer, 10 mM DTT, and M-MLV reverse transcriptase and incubated at 42° C. for 1 hour, then at 72° C. for 15 minutes, and at 4° C. for 30 minutes. The synthesized cDNA was stored at −20° C.
The term relative mRNA expression level signifies that in order to normalize each group's total RNA level, the mRNA expression level of each differentiation marker is divided by the expression level of GAPDH whose expression level is fairly constant across cells, and then the values of each test material are compared with those of the controls (undifferentiated NSC) in each group.

[5] = tested on: MEK 1, MEK2; settings: literature reference; cited from earlier work
[6] = target: MEK1 (Homo sapiens (Human), UniProt Q02750); settings: cited from earlier work
[7] = target: MEK2 (Homo sapiens (Human), UniProt P36507); settings: cited from earlier work
[8] = trametinib 10 nM, 100 nM, memantine 5 μM, 10 μM, 4 days
[9] = 1.0 μM and 10 μM, day 2 of culture
[10] = 1.0 nM and 10 nM, day 2 of culture

Sequence of MEK1 (Q02750 whole entry, species assumed): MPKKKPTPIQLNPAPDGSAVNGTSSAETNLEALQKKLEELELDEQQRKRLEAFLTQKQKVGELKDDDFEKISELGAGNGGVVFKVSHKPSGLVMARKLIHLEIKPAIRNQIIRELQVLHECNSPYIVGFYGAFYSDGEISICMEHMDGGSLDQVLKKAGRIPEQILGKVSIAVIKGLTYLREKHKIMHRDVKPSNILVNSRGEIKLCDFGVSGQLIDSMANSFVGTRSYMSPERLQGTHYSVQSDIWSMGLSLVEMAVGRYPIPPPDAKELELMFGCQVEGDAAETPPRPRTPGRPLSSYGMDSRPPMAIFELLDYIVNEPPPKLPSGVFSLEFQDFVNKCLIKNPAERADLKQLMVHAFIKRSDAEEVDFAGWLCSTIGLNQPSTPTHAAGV
Sequence of MEK2 (P36507 whole entry, species assumed): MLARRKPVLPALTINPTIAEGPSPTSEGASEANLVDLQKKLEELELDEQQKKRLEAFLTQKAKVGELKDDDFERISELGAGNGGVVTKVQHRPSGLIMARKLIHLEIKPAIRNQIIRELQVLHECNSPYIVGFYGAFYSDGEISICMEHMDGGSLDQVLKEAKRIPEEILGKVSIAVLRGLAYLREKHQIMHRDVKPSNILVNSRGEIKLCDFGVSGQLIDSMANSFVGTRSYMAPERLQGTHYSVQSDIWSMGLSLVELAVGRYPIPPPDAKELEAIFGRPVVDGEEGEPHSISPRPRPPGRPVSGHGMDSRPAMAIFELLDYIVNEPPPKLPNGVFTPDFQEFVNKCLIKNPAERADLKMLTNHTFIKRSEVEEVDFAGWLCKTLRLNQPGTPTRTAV

## O=C(NC[C@H](O)CO)c1ccncc1Nc1ccc(I)cc1F [AS703026]
[1]; added daily, 4 days of culture
  concentration required for neuronal differentiation to initiate: 1.0 µM
[1]; day 2 of culture
  concentration at which differentiation morphology starts: 10 μM
[2]; day 2
  cell protection and NSC differentiation under amyloid-beta cytotoxicity: provided cell protection and induced the differentiation of NSC
[2]; regardless of 10 μM amyloid-beta treatment, 4 days
  concentration required for neuronal differentiation: 10 µM
[2]; [8]
  cell toxicity / cell death (morphology): did not elicit cell toxicity
[3]; 0.1 μM
  neuron differentiation by Tuj1 staining: no differentiation was observed
[3]; 1.0 μM
  neuron differentiation by Tuj1 staining: neuron differentiation occurs at this concentration, albeit only to a marginal extent
[4]
  Tuj1 and TH mRNA expression compared with trametinib: comparable to those of 25 nM trametinib

## Cc1cc(C(=O)NOCCO)c(Nc2ccc(I)cc2F)n(C)c1=O [AZD8330]
[1]; day 2 of culture
  concentration at which differentiation morphology starts: 1.0 μM
[2]; day 2
  cell protection and NSC differentiation under amyloid-beta cytotoxicity: provided cell protection and induced the differentiation of NSC

## O=C(NOCC1CC1)c1ccc(F)c(F)c1Nc1ccc(I)cc1Cl [PD184352]
[1]; 0.1 μM, day 2 of culture
  NSC differentiation-inducing effect (morphology): only a weak NSC differentiation-inducing effect
[1]; [9]
  cell death (morphology): all the cells died

## O=C(NOCC(O)CO)c1cc(Br)c(F)c(F)c1Nc1ccc(I)cc1F (stereo not drawn) [PD318088]
[1]; day 2 of culture
  concentration at which differentiation morphology starts: 1.0 μM
[2]; day 2
  cell protection and NSC differentiation under amyloid-beta cytotoxicity: provided cell protection and induced the differentiation of NSC

## O=C(NOC[C@H](O)CO)c1ccc(F)c(F)c1Nc1ccc(I)cc1F [PD0325901]
[2]; day 2 of culture
  concentration at which the differentiation-inducing effect starts: 0.1 µM

## CNS(=O)(=O)Nc1nccc(Cc2c(C)c3ccc(Oc4ncccn4)cc3oc2=O)c1F [RO5126766]
[2]; day 2
  cell protection and NSC differentiation under amyloid-beta cytotoxicity: provided cell protection and induced the differentiation of NSC
[2]; day 2 of culture
  concentration at which the differentiation-inducing effect starts: 1.0 µM

## N#CC(=C(/N)Sc1ccccc1N)/C(C#N)=C(\N)Sc1ccccc1N [U0126]
[2]; 0.1 μM and 1.0 μM, day 2 of culture
  cell proliferation (morphology): inhibition of cell proliferation
[2]; 2.5 μM, day 2 of culture
  differentiation-inducing effect (morphology): did not show any clear differentiation-inducing effect
[2]; 10 μM, day 2 of culture
  cytotoxicity (morphology): showed cell cytotoxicity
[2]; all concentrations tested
  NSC differentiation-inducing effect (morphology): failed to show any NSC differentiation-inducing effect

## Cn1cnc2c(F)c(Nc3ccc(Br)cc3F)c(C(=O)NOCCO)cc21 [binimetinib]
[1]; day 2 of culture
  concentration at which differentiation morphology starts: 10 μM
[2]; day 2
  cell protection and NSC differentiation under amyloid-beta cytotoxicity: provided cell protection and induced the differentiation of NSC
[5]
  IC50: 12 nM

## O=C(c1ccc(F)c(F)c1Nc1ccc(I)cc1F)N1CC(O)([C@@H]2CCCCN2)C1 [cobimetinib]
[2]; 10 μM, regardless of amyloid-beta, day 2
  differentiation of adult NSC (morphology): did not induce the differentiation of adult NSC; also recorded: does not induce the differentiation of mouse adult neural stem cells
[6]; Molecules 2017;22:1551
  selectivity toward MEK1 compared with MEK2: ≥ 100 ×
[6]
  IC50: 0.95 nM
[7]
  IC50: 199 nM

## CC12CC3CC(C)(C1)CC(N)(C3)C2 [memantine]
[2]; [8]
  cell toxicity / cell death (morphology): death of neural stem cells
[2]; with or without 10 μM oligomeric Aβ(1-42), trametinib 10 nM, 100 nM, memantine 5 μM, 10 μM, 4 days
  differentiation of NSC into neurons (morphology): the differentiation of NSC into neurons was not observed

## COc1cc(F)c(F)c(Nc2ccc(I)cc2F)c1NS(=O)(=O)C1(C[C@H](O)CO)CC1 [refametinib]
[1]; day 2 of culture
  concentration at which differentiation morphology starts: 1.0 μM
[2]; day 2
  cell protection and NSC differentiation under amyloid-beta cytotoxicity: provided cell protection and induced the differentiation of NSC

## BI847325
[2]; [10]
  cell proliferation (morphology): cell proliferation seemed to be somewhat inhibited
  differentiation-inducing effect (morphology): a differentiation-inducing effect was not observed
[2]; 0.1 μM, day 2 of culture
  differentiation-inducing effect (morphology): only a weak differentiation-inducing effect
[2]; [9]
  cell death (morphology): all the cells died
